From ChEMBL document CHEMBL4879554, “Data for DCP probe GNE-2256” (2021)
pIC50: −log10 of the molar value. The source made the active and inactive calls. No cut-off for these calls is given here.

How the values were obtained:
[1] = R848-induced IL-6 production in human whole blood; assay type: tissue-based
[2] = target: NUAK family SNF1-like kinase 1 (Homo sapiens) (UniProt O60285); experiment: ARK5 Kinase panel; details: Compound concentration 1.0 uM
[3] = target: Mitogen-activated protein kinase kinase kinase 5 (Homo sapiens) (UniProt Q99683); experiment: ASK1 Kinase panel; details: Compound concentration 1.0 uM
[4] = target: Tyrosine-protein kinase ABL1 (Homo sapiens) (UniProt P00519); experiment: Abl Kinase panel; details: Compound concentration 1.0 uM
[5] = target: Serine/threonine-protein kinase BRSK1 (Homo sapiens) (UniProt Q8TDC3); experiment: BrSK1 Kinase panel; details: Compound concentration 1.0 uM
[6] = target: Calcium/calmodulin-dependent protein kinase kinase 1 (Homo sapiens) (UniProt Q8N5S9); experiment: CAMKK1 Kinase panel; details: Compound concentration 1.0 uM
[7] = target: CDK8/Cyclin C (Homo sapiens) (UniProt P49336+P24863); experiment: CDK8/cyclinC Kinase panel; assay type: protein-complex assay; details: Compound concentration 1.0 uM
[8] = target: CDK9/cyclin T1 (Homo sapiens) (UniProt O60563+P50750); experiment: CDK9/cyclinT1 Kinase panel; assay type: protein-complex assay; details: Compound concentration 1.0 uM
[9] = target: Casein kinase I isoform gamma-2 (Homo sapiens) (UniProt P78368); experiment: CK1_gamma2 Kinase panel; details: Compound concentration 1.0 uM
Casein kinase I isoform gamma-2 (Homo sapiens), sequence (P78368 whole entry, looked up, canonical isoform): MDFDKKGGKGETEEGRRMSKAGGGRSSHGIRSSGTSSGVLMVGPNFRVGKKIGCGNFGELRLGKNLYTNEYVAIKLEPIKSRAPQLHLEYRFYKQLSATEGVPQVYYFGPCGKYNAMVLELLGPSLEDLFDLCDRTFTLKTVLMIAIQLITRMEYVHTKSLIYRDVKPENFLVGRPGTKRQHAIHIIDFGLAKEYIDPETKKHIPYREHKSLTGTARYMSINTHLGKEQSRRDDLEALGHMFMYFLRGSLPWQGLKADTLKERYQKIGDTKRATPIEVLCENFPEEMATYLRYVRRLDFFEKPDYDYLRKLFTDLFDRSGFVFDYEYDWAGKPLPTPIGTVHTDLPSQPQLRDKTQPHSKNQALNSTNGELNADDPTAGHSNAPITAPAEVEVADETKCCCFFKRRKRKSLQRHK

[10] = target: Death-associated protein kinase 1 (Homo sapiens) (UniProt P53355); experiment: DAPK1 Kinase panel; details: Compound concentration 1.0 uM
[11] = target: Dual specificity tyrosine-phosphorylation-regulated kinase 1A (Homo sapiens) (UniProt Q13627); experiment: DYRK1A Kinase panel; details: Compound concentration 1.0 uM
[12] = target: Dual specificity tyrosine-phosphorylation-regulated kinase 4 (Homo sapiens) (UniProt Q9NR20); experiment: DYRK4 Kinase panel; details: Compound concentration 1.0 uM
[13] = target: Receptor tyrosine-protein kinase erbB-4 (Homo sapiens) (UniProt Q15303); experiment: ErbB4 Kinase panel; details: Compound concentration 1.0 uM
[14] = target: Fibroblast growth factor receptor 3 (Homo sapiens) (UniProt P22607); experiment: FGFR3 Kinase panel; details: Compound concentration 1.0 uM
Fibroblast growth factor receptor 3 (Homo sapiens), sequence (P22607 23-806 limits assumed): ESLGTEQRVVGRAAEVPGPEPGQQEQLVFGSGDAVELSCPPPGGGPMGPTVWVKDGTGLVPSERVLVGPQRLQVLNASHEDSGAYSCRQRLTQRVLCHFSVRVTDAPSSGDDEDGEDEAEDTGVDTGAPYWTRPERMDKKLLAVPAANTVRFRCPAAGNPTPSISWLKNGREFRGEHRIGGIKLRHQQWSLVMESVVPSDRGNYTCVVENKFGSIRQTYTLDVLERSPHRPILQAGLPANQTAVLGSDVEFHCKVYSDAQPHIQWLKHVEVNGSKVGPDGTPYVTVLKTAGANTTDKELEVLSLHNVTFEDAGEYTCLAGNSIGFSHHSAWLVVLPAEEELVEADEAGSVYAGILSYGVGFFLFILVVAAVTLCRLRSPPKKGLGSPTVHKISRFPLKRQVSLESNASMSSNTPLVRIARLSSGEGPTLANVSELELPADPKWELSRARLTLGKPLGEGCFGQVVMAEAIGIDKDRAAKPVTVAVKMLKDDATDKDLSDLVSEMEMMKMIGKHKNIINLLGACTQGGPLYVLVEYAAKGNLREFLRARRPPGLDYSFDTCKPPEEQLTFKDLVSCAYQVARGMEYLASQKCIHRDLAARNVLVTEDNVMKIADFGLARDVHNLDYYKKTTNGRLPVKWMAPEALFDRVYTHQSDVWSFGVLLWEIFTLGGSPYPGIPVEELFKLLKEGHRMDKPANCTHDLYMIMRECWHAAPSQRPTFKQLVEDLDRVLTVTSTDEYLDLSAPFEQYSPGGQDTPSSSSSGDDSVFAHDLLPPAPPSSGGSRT

[15] = target: Tyrosine-protein kinase Fgr (Homo sapiens) (UniProt P09769); experiment: Fgr Kinase panel; details: Compound concentration 1.0 uM
Tyrosine-protein kinase Fgr (Homo sapiens), sequence (P09769 2-529 limits assumed): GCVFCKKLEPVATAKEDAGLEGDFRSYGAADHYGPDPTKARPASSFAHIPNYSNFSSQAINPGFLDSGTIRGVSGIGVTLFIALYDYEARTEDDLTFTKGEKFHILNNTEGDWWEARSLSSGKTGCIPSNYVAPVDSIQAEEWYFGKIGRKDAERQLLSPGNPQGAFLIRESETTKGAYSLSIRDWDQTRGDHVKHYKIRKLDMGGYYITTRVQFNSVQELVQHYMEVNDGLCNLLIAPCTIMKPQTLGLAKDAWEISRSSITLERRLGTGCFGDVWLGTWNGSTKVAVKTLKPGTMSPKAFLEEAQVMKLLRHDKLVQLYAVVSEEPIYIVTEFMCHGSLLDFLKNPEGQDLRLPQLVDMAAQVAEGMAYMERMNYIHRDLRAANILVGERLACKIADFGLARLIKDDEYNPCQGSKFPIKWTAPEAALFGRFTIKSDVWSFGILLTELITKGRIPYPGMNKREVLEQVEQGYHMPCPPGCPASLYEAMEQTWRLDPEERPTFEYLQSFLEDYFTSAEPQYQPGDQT

[16] = target: Vascular endothelial growth factor receptor 1 (Homo sapiens) (UniProt P17948); experiment: Flt1 Kinase panel; details: Compound concentration 1.0 uM
[17] = target: Receptor-type tyrosine-protein kinase FLT3 (Homo sapiens) (UniProt P36888); experiment: Flt3 Kinase panel; details: Compound concentration 1.0 uM
[18] = target: G protein-coupled receptor kinase 6 (Homo sapiens) (UniProt P43250); experiment: GRK6 Kinase panel; details: Compound concentration 1.0 uM
[19] = target: Glycogen synthase kinase-3 alpha (Homo sapiens) (UniProt P49840); experiment: GSK3_alpha Kinase panel; details: Compound concentration 1.0 uM
[20] = target: Glycogen synthase kinase-3 beta (Homo sapiens) (UniProt P49841); experiment: GSK3_beta Kinase panel; details: Compound concentration 1.0 uM
[21] = target: Homeodomain-interacting protein kinase 1 (Homo sapiens) (UniProt Q86Z02); experiment: HIPK1 Kinase panel; details: Compound concentration 1.0 uM
[22] = target: Megakaryocyte-associated tyrosine-protein kinase (Homo sapiens) (UniProt P42679); experiment: Hyl Kinase panel; details: Compound concentration 1.0 uM
[23] = target: Insulin-like growth factor 1 receptor (Homo sapiens) (UniProt P08069); experiment: IGF1R Kinase panel; details: Compound concentration 1.0 uM
[24] = target: Inhibitor of nuclear factor kappa-B kinase subunit epsilon (Homo sapiens) (UniProt Q14164); experiment: IKK_epsilon Kinase panel; details: Compound concentration 1.0 uM
[25] = target: Insulin receptor-related protein (Homo sapiens) (UniProt P14616); experiment: IRR Kinase panel; details: Compound concentration 1.0 uM
[26] = target: T1, Tyrosine-protein kinase JAK2 (Homo sapiens, UniProt O60674); experiment: JAK2 Kinase panel
T1 sequence (O60674 whole entry): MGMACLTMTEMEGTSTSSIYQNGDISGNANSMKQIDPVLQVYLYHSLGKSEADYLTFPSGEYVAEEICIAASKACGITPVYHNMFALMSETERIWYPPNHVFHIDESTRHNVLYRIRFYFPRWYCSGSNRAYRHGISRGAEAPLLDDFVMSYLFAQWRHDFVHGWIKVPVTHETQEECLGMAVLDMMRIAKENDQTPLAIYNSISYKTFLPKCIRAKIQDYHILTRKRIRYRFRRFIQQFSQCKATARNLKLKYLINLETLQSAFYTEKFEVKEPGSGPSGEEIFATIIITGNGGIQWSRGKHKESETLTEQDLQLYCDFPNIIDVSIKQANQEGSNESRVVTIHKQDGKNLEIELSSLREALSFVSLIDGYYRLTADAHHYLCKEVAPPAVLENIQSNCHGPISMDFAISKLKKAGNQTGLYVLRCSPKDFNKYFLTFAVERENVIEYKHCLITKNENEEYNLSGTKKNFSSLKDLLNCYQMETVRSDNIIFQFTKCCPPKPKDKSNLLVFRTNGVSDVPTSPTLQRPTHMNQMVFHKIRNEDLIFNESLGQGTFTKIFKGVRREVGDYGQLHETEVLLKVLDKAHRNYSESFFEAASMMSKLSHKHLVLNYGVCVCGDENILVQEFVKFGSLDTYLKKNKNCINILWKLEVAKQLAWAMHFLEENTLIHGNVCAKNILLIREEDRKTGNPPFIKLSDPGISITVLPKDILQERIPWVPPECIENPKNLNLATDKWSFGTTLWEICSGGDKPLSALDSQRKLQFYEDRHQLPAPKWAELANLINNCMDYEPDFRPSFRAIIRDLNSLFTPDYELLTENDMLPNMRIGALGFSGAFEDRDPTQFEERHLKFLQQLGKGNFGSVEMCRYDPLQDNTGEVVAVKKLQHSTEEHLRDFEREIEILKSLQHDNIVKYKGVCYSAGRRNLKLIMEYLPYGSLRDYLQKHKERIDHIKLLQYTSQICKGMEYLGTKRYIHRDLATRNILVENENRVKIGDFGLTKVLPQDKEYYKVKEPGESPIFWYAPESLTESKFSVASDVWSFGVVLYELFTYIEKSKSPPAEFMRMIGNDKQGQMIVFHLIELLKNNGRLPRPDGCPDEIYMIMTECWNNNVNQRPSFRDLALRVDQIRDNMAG

[27] = target: Tyrosine-protein kinase JAK3 (Homo sapiens) (UniProt P52333); experiment: JAK3 Kinase panel; details: Compound concentration 1.0 uM
[28] = target: Serine/threonine-protein kinase MARK1 (Homo sapiens) (UniProt Q9P0L2); experiment: MARK1 Kinase panel; details: Compound concentration 1.0 uM
[29] = target: Dual specificity mitogen-activated protein kinase kinase 6 (Homo sapiens) (UniProt P52564); experiment: MKK6 Kinase panel; details: Compound concentration 1.0 uM
[30] = target: Serine/threonine-protein kinase 26 (Homo sapiens) (UniProt Q9P289); experiment: MST4 Kinase panel; details: Compound concentration 1.0 uM
[31] = target: Myosin light chain kinase, smooth muscle (Homo sapiens) (UniProt Q15746); experiment: MYLK(smMLCK) Kinase panel; details: Compound concentration 1.0 uM
[32] = target: Misshapen-like kinase 1 (Homo sapiens, UniProt Q8N4C8); experiment: Mink1 Kinase panel
[33] = target: Serine/threonine-protein kinase Nek4 (Homo sapiens) (UniProt P51957); experiment: NEK4 Kinase panel; details: Compound concentration 1.0 uM
[34] = target: Serine/threonine-protein kinase Nek9 (Homo sapiens) (UniProt Q8TD19); experiment: NEK9 Kinase panel; details: Compound concentration 1.0 uM
[35] = target: Phosphatidylinositol 4,5-bisphosphate 3-kinase catalytic subunit alpha isoform (Homo sapiens) (UniProt P42336); experiment: PI3KA Kinase panel; details: Compound concentration 1.0 uM
Phosphatidylinositol 4,5-bisphosphate 3-kinase catalytic subunit alpha isoform (Homo sapiens), sequence (P42336 whole entry, canonical isoform): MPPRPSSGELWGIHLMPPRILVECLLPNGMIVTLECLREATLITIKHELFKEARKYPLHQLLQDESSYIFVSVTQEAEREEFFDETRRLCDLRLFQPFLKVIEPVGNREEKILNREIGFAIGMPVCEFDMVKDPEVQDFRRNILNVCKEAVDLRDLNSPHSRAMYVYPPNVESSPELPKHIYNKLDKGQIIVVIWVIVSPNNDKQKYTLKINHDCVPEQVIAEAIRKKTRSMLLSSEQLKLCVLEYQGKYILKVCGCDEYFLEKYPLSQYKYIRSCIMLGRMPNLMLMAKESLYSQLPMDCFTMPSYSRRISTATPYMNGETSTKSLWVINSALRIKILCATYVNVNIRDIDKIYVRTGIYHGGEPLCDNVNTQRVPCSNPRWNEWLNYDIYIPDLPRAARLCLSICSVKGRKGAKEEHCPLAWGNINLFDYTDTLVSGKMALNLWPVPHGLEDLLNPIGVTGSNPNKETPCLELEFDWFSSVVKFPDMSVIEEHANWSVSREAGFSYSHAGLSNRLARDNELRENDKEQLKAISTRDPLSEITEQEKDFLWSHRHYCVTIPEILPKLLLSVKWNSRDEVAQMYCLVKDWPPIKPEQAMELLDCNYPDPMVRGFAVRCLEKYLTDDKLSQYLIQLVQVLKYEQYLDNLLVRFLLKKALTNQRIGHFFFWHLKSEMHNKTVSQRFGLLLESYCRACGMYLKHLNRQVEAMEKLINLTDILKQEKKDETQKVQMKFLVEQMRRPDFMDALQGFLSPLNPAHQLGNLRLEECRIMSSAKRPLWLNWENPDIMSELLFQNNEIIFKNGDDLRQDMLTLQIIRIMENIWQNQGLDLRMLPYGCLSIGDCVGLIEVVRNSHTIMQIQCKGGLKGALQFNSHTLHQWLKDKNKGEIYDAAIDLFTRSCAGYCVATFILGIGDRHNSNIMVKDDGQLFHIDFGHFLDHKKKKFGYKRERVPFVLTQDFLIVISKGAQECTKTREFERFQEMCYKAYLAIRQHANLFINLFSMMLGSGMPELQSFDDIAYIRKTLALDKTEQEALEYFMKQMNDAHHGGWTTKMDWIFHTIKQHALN

[36] = species: Homo sapiens; experiment: PKA Kinase panel; details: Compound concentration 1.0 uM
[37] = target: Protein kinase C delta type (Homo sapiens) (UniProt Q05655); experiment: PKC_delta Kinase panel; details: Compound concentration 1.0 uM
[38] = target: Protein kinase C zeta type (Homo sapiens) (UniProt Q05513); experiment: PKC_zeta Kinase panel; details: Compound concentration 1.0 uM
[39] = target: Serine/threonine-protein kinase PLK1 (Homo sapiens) (UniProt P53350); experiment: PLK1 Kinase panel; details: Compound concentration 1.0 uM
[40] = target: Rho-associated protein kinase 2 (Homo sapiens) (UniProt O75116); experiment: ROCK2 Kinase panel; details: Compound concentration 1.0 uM
[41] = target: Ribosomal protein S6 kinase alpha-2 (Homo sapiens) (UniProt Q15349); experiment: RSK3 Kinase panel; details: Compound concentration 1.0 uM
[42] = target: Serine/threonine-protein kinase Sgk1 (Homo sapiens) (UniProt O00141); experiment: SGK1 Kinase panel; details: Compound concentration 1.0 uM
Serine/threonine-protein kinase Sgk1 (Homo sapiens), sequence (O00141 whole entry): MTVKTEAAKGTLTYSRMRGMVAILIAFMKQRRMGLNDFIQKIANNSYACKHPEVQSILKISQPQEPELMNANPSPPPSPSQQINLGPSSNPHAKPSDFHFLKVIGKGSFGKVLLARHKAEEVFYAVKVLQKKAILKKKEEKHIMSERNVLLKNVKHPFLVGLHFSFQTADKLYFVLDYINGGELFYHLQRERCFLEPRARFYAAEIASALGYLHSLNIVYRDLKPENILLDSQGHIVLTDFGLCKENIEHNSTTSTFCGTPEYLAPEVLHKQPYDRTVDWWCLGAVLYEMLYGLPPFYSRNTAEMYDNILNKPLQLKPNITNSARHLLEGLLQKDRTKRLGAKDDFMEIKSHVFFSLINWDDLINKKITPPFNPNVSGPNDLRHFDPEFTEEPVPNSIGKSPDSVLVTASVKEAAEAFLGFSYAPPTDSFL

[43] = target: Proto-oncogene tyrosine-protein kinase Src (Homo sapiens) (UniProt P12931); experiment: Src Kinase panel; details: Compound concentration 1.0 uM
[44] = target: Activated CDC42 kinase 1 (Homo sapiens) (UniProt Q07912); experiment: TNK2 Kinase panel; details: Compound concentration 1.0 uM
[45] = target: BDNF/NT-3 growth factors receptor (Homo sapiens) (UniProt Q16620); experiment: TrkB Kinase panel; details: Compound concentration 1.0 uM
[46] = target: Death-associated protein kinase 3 (Homo sapiens) (UniProt O43293); experiment: ZIPK Kinase panel; details: Compound concentration 1.0 uM
[47] = target: Serine/threonine-protein kinase mTOR (Homo sapiens) (UniProt P42345); experiment: mTOR Kinase panel; details: Compound concentration 1.0 uM
[48] = target: High affinity nerve growth factor receptor (Homo sapiens, UniProt P04629); experiment: NanoBRET assay (NTRK1v2, SGC Frankfurt)
[49] = target: T1, Tyrosine-protein kinase JAK2; experiment: NanoBRET assay (JAK2, SGC Frankfurt)
[50] = target: D(4) dopamine receptor (Homo sapiens) (UniProt P21917); details: Compound concentration 10.0 uM
[51] = target: Sodium-dependent dopamine transporter (Homo sapiens) (UniProt Q01959); details: Compound concentration 10.0 uM
[52] = target: Histamine H3 receptor (Homo sapiens) (UniProt Q9Y5N1); details: Compound concentration 10.0 uM
[53] = target: Alpha-1B adrenergic receptor (Homo sapiens) (UniProt P35368); details: Compound concentration 10.0 uM
Alpha-1B adrenergic receptor (Homo sapiens), sequence (P35368 whole entry): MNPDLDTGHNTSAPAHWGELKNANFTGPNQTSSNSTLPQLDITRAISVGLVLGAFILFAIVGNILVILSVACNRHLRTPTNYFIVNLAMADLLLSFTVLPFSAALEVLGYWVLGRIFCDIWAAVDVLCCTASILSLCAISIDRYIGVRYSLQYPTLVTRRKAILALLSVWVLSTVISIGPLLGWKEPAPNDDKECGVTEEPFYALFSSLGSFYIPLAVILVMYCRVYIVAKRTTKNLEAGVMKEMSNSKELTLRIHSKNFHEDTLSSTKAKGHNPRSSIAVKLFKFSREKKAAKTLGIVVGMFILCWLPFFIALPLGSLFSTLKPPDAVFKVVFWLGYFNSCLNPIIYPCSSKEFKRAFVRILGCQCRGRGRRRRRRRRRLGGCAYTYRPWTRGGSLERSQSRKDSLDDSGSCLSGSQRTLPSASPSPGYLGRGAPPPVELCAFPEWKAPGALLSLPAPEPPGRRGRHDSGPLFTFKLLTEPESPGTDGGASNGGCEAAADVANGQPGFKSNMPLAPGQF

[54] = target: Alpha-2C adrenergic receptor (Homo sapiens) (UniProt P18825); details: Compound concentration 10.0 uM
[55] = target: Beta-2 adrenergic receptor (Homo sapiens) (UniProt P07550); details: Compound concentration 10.0 uM

CC(C)(O)[C@H](F)CN1Cc2cc(NC(=O)c3cnn4cccnc34)c(N3CCOCC3)cc2C1=O
IC50 [1]: 190 nM (active)
inhibition [2]: 23.5%
inhibition [3]: 3.5%
inhibition [4]: 9.8%
inhibition [5]: 3%
inhibition [6]: 3.5%
inhibition [7]: 13.5%
inhibition [8]: 2.5%
inhibition [9]: 5%
inhibition [10]: 5.5%
inhibition [11]: 2%
inhibition [12]: -5%
inhibition [13]: 5%
inhibition [14]: 1.5%
inhibition [15]: 53%
inhibition [16]: -1%
inhibition [17]: 90.8%
inhibition [18]: 3.5%
inhibition [19]: 15.5%
inhibition [20]: 7.8%
inhibition [21]: -0%
inhibition [22]: -4%
inhibition [23]: 11.5%
inhibition [24]: -0.5%
inhibition [25]: 18%
pIC50 [26]: 6.31
inhibition ([26]; Compound concentration 1.0 uM): 80.5%
inhibition [27]: 28%
inhibition [28]: -1%
inhibition [29]: -5.5%
inhibition [30]: 2%
inhibition [31]: 12%
pIC50 [32]: 6.06
inhibition ([32]; Compound concentration 1.0 uM): 80.5%
inhibition [33]: 10%
inhibition [34]: -2.5%
inhibition [35]: 21.5%
inhibition [36]: 5%
inhibition [37]: 12.5%
inhibition [38]: 6%
inhibition [39]: -2%
inhibition [40]: 6%
inhibition [41]: 9%
inhibition [42]: 4%
inhibition [43]: 23.8%
inhibition [44]: 37.5%
inhibition [45]: 86%
inhibition [46]: 3.5%
inhibition [47]: -0%
EC50 [48]: 11000 nM (not active)
EC50 [49]: > 50000 nM (not active)
inhibition [50]: -9.22%
inhibition [51]: 20%
inhibition [52]: -5.14%
inhibition [53]: -5.24%
inhibition [54]: -8.65%
inhibition [55]: 3.53%
